Assay [1] addresses T1, GPR45 like/GPR63 receptor (Homo sapiens, UniProt Q9BZJ6). Nature of the assay: FLIPR assay, stimulation of intracellular Ca2+ release in transfected CHO cells. In kind it is cell-based. Also on record: The PCR fragment with a length of 1,260 base pairs which was formed by the PCR described above was incorporated; expressed in transfected cells; host or cells: CHO-K1 cells, transient transfection with Lipofectamine. Conditions: final concentration of 1 μM; CHO cells expressing GPR45 like/GPR63 receptor and G protein α subunit delta 6qi4mgr. As to the method:
CHO-K1 cells were cultivated in basal Iscove's medium with further additions. Iscove's medium is commercially available from, for example, Biochrom, Berlin. The composition was described for the first time in N. N. Iscove and F. Melchers, Journal of Experimental Medicine 147, 923-933 (1978). 10% fetal bovine serum, 10 000 U/ml-10 000 μg/ml penicillin-streptomycin, gentamycin, and 2 mM L-glutamine were used as further additions to Iscove's medium. The cells were incubated at 37° C. with a 5% CO2 atmosphere.
About 2×10^5 CHO-K1 cells were seeded in 35 mm dishes for the transient transfection. After further incubation for about 24 hours and with the cells at about 50-80% confluence, the cells were transiently transfected with 1 μg of the plasmid DNA construct with the assistance of Lipofectamine (Gibco).
About 16 to 18 hours after the transfection, the CHO cells were put in an amount of about 80,000 cells per well in 96-well plates and incubated further for about 18-24 hours. […]
After the last washing step, 100 μl were left on the cells in each well. […] A 60 μM solution was kept ready on a 96-well microtiter plate. […]
The fluorescence was measured by a Fluorometric Imaging Plate Reader (FLIPR®, Molecular Devices, Sunnyvale, Calif.) for 1 min in intervals lasting 1 sec and for a further 2 min in 3-second intervals. […]

Assay [2] deals with T1, GPR45 like/GPR63 receptor. Nature of the assay: Cell growth assay in transfected CHO cells. The settings on record: 1 μM S1P, 48 hours, Iscove's medium with 10% dialyzed fetal calf serum, average of 2 independent tests. It is filed as cell-based. Further details: The PCR fragment with a length of 1,260 base pairs which was formed by the PCR described above was incorporated; expressed in transfected cells; host or cells: CHO cells, transient transfection with Lipofectamine. As to the method: CHO cells were put in an amount of 8×10^4 cells into 35 mm plates. After 32 hours, the cells were transfected with 1 μg of the plasmid construct using Lipofectamine (Gibco). After a further 13 hours (time 0), the cells were washed with PBS and incubated in Iscove's medium which contained 10% dialyzed fetal calf serum for 48 hours (time 48), specifically in the presence or absence of 1 μM S1P (sphingosine 1-phosphate).
The number of cells at time 0 and time 48 was determined by counting. This was done by first treating the cells with trypsin and then suspending them in 1 ml of Iscove's. An amount of 100 μl of these cells was diluted in 10 ml of buffer and counted in a cell counter, e.g. in the Casy Cellcounter TT (Cell Counter und Analysesystem, Schärfe, Reutlingen).
An amount of 8×10^4 CHO cells was seeded onto 35 mm plates. The cells were transfected after 32 hours with 1 μg of DNA of the vector construction. After 13 hours, the cells were washed once with PBS and incubated in Iscove's medium containing 10% dialyzed fetal calf serum in the presence or absence of 1 μM S1P for a further 48 hours.

T1 sequence (Q9BZJ6 whole entry, the tested form may be a part): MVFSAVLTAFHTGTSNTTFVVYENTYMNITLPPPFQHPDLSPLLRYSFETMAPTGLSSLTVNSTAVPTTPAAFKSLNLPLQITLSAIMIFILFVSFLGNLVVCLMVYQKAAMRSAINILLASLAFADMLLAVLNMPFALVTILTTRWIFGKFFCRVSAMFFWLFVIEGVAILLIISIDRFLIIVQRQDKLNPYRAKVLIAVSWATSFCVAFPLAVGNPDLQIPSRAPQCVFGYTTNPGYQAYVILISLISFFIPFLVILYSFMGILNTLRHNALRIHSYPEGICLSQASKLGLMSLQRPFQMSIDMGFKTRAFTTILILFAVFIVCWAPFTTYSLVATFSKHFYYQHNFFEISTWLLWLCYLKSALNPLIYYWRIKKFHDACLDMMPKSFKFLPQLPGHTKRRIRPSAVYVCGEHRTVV

With `CCCCCCCCCCCCCCC[C@@H](O)[C@@H](N)COP(=O)(O)O` [DHS1P, dihydrosphingosine 1-phosphate], in assay [1], the “Ca^2+ influx” value is listed as “led to a measurable Ca^2+ influx”. For `CCCCCCCCCCCCC/C=C/[C@@H](O)[C@@H](N)COP(=O)(O)O` [S1P, sphingosine 1-phosphate], in assay [1], the “Ca^2+ influx” value is “led to a measurable Ca^2+ influx”. Also, in assay [2], the “more cells (cell number vs absence of S1P)” value is given as “about 20%”.

The values are drawn from patent US7300764B2, “Method for identifying agonists and antagonists of the GPR45-like/GPR63 receptor” (Sanofi-Aventis Deutschland GmbH, priority 2002, dated 2007).
